Results taken from ChEMBL document CHEMBL2074481, “Regulation of rat multidrug resistance protein 2 by classes of prototypical microsomal enzyme inducers that activate distinct transcription pathways” (Toxicol Sci, 2002).

Target: ATP-binding cassette sub-family C member 2 (Rattus norvegicus, UniProt Q63120)
Assay: TP_TRANSPORTER: Western in vivo, liver of SD rat
Format: functional, organism-based, Sprague-Dawley

Sequence of ATP-binding cassette sub-family C member 2 (Q63120 whole entry): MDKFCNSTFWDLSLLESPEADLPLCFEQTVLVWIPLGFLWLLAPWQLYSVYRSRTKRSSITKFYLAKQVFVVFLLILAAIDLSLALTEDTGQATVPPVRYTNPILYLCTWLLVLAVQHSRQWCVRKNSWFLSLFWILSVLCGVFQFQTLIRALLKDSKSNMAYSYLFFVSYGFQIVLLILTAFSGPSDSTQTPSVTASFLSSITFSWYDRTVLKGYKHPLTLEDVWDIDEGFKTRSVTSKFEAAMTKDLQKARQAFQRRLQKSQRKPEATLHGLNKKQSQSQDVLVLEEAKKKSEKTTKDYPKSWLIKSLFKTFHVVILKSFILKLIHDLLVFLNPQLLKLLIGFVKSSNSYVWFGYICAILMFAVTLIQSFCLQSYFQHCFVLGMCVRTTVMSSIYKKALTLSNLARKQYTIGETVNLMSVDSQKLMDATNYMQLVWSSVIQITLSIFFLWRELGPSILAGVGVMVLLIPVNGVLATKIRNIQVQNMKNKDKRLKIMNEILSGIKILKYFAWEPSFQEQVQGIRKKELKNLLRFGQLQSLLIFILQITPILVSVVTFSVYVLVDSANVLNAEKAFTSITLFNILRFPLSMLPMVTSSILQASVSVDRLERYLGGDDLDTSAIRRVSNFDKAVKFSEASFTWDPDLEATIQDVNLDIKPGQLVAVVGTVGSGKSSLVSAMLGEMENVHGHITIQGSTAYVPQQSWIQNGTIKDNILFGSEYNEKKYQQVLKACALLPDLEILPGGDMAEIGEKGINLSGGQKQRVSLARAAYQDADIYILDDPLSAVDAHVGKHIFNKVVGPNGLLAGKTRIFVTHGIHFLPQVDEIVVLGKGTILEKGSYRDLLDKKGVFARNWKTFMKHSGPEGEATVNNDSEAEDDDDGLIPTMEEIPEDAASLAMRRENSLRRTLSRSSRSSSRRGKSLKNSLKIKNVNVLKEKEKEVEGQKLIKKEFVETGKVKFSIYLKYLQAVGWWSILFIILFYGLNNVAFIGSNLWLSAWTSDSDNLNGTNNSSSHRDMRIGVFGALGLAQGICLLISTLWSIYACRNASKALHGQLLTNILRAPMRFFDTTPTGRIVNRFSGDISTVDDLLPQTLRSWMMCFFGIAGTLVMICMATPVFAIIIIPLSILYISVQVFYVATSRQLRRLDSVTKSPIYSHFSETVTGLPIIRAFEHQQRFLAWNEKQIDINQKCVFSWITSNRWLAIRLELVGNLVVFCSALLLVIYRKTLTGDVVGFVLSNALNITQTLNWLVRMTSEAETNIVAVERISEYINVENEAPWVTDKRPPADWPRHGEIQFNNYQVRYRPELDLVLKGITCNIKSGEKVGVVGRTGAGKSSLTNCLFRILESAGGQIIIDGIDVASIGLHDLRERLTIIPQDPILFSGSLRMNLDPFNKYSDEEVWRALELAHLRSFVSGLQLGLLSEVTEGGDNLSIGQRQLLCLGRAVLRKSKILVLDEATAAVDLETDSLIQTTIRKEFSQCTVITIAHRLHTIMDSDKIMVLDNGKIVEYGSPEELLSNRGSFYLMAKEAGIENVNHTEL

Activity | SMILES
inducer [+] | CCOc1ccc2c(c1)C(C)=CC(C)(C)N2 [E324]
inducer [+] | CC(=O)S[C@@H]1CC2=CC(=O)CC[C@]2(C)[C@H]2CC[C@@]3(C)[C@@H](CC[C@@]34CCC(=O)O4)[C@H]12 [SPIRONOLACTONE]
